According to BindingDB's records for patent US9790233 (Case Western Reserve University, 2017):

Biological target: T1, 15-hydroxyprostaglandin dehydrogenase [NAD(+)] (Homo sapiens, UniProt P15428)
T1 sequence (P15428 whole entry): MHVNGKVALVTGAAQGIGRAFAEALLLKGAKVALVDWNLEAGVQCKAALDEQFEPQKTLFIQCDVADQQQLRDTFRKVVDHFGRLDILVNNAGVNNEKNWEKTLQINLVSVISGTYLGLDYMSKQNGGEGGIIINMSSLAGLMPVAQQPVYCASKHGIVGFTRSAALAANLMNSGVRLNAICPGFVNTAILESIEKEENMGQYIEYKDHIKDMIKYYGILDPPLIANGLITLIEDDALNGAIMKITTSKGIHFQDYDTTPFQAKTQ
Test: In Vitro Assay

For `CCCCC(=O)c1sc2nc(-c3nccs3)ccc2c1N` [US9790233, ID SW206992], the IC50 was 1.41 nM.
